Source: PMC5095700 (Biochemistry, 2016)

Molecular target: T1, Glucosamine/glucosaminide N-acetyltransferase (GlmA) (Clostridium acetobutylicum, UniProt Q97ML2, Y297F)
T1 sequence (Q97ML2 1-320 Y297F): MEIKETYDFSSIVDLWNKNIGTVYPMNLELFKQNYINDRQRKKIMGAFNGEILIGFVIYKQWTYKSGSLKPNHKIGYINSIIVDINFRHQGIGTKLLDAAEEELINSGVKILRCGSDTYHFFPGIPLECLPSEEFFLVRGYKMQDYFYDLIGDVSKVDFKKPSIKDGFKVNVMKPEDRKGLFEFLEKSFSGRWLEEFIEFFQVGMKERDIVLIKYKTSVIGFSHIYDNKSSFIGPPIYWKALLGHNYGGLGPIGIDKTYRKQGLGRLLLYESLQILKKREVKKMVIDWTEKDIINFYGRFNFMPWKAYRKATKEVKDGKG
Assay: X-ray crystal structure of Y297F variant
Format: binding

**Q.** Which “X-ray crystal structure of Y297F variant (1.8 Å)” value does the source give for `CC(=O)SCCNC(=O)CCNC(=O)[C@H](O)C(C)(C)COP(=O)(O)OP(=O)(O)OC[C@H]1O[C@@H](n2cnc3c(N)ncnc32)[C@H](O)[C@@H]1OP(=O)(O)O` [AcCoA, acetyl CoA] here?
**A.** electron density was clearly visible for the acetyl group of the cofactor bound in the C-terminal domain
